# Experimental data published in patent US20210323940A1 (OCEANS LTD., priority 2018, published 2021).
# Tests used:
# [1] = tested on: MDA-MB-231 (mammary gland adenocarcinoma); assay: CIMA assay (MTT, 72 h); format: cell-based, human; details: Homo sapiens, MDA-MB-231
# Procedure: Experimental: Stock solutions of the test compounds were prepared in dimethylsulfoxide (DMSO) at 10 mg/ml and stored at −20° C. until used. This preparation ensures that the DMSO content delivered to cells in culture never exceeds 1%. […] Cell proliferation was initially assessed using a standard colorimetric indicator of metabolic activity (CIMA) assay. In this assay, reduction of yellow tetrazolium salt (MTT) to purple formazan by mitochondrial reductases enzymes in viable cells were measured as change in absorbance (λ=500-600).
# Seven human cell lines were evaluated: U373 (glioblastoma-astrocytoma), A549 (lung carcinoma), PC3 (prostate adenocarcinoma), THP1 (acute monocytic leukemia), MDA-MB-231 (mammary gland adenocarcinoma), SKOV3 (ovarian adenocarcinoma) and CCD1079Sk (normal skin fibroblast) cells.
# tumour cell lines = assay: CIMA assay, overall statements on the panel of human cell lines; format: cell-based; details: synthetic compound, 72 h, listed as Synthesized compound II
# Procedure: Prepared extracts were assessed following chronic exposure conditions in which cells were seeded at 2×10^3 cells/well (96 wells-plate) and incubated with test compounds for 72 h. Each compound was evaluated over a range of concentrations (0, 10, 25, 50 or 100 μg/ml). Cell proliferation was initially assessed using a standard colorimetric indicator of metabolic activity (CIMA) assay. In this assay, tetrazole reduction was evaluated as a measure of metabolic function that evaluates mitochondrial activity to determine the extent of cell proliferation within a culture. This assay is based on the reduction of yellow tetrazolium salt to purple formazan by mitochondrial reductases enzyme in viable cells, resulting in a color change that confers a change in absorbance. […]
# Crude extract #1 was fractionated into five fractions by C-18 SPE column separation using 15 ml each of 5% methanol (fraction 1), 25% methanol (fraction 2), 50% methanol (fraction 3), 100% methanol (fraction 4) and methanol:dichloromethane (1:1) (fraction 5). Extracts were fractionated and the resulting fractions were evaluated using CIMA assay. […]
# Experimental: Stock solutions of the test compounds were prepared in dimethylsulfoxide (DMSO) at 10 mg/ml and stored at −20° C. until used. […] Cell proliferation was initially assessed using a standard colorimetric indicator of metabolic activity (CIMA) assay. […]
# [2] = tested on: MDA-MB-231 breast cancer cells; assay: Murine flank tumour model, synthesized compound (II) (DHODO): tumour volume; format: in vivo, nude mice (strain J:NU)
# Procedure: (§1) Test material was dissolved in DMSO and the final injectable solution was prepared using PBS. Homozygous outbred nude mice (strain J:NU, 6-weeks old, female) suitable as immune-deficient tumour transplant hosts will be procured from a commercial supplier (Jackson Labs, Maine, USA) and acclimatized in a barrier facility (AVC) for one week. Mice were weighed and random groups of ten mice were established based on the tumour volume and body weight as follows: To establish the tumours, MDA-MB-231 breast cancer cells (2.5 million cells in 100 pl 50:50 matrigel:DMEM) were injected subcutaneously into both right and left flanks. Tumours were evaluated over a 2-week period until sufficient volume growth (approximately 20 mm3) for subsequent analysis had occurred. During this period, body weights were measured twice weekly. Mice with established tumours were treated every second day by intraperitoneal injections of test compounds over a 4-week time course. From each group a minimum of 15 tumours were selected for analysis. Tumours were measured weekly using external calipers and volumes established using the modified ellipsoidal formula: tumour volume=0.5 (length×width2). In addition, body weights and general animal health were assessed twice weekly during the treatment period. At study termination, mice were sacrificed and tumours excised from the flank was weighed. To evaluate tumour metastasis, an explorative necropsy was conducted in each mouse and the presence and frequency of additional tumours at sites distal to the flank were assessed.
# [3] = Murine flank tumour model, synthesized compound (II) (DHODO): body weights; format: in vivo, nude mice (strain J:NU)
# Procedure: as §1, with “To” for “Test material was dissolved in DMSO and the final injectable solution was prepared using PBS. Homozygous outbred nude mice (strain J:NU, 6-weeks old, female) suitable as immune-deficient tumour transplant hosts will be procured from a commercial supplier (Jackson Labs, Maine, USA) and acclimatized in a barrier facility (AVC) for one week. Mice were weighed and random groups of ten mice were established based on the tumour volume and body weight as follows: To”
smiles,measurement,setting,value
"CCCCC[C@H](O)[C@H](O)/C=C/[C@@H]1CCCCCCCC(=O)O1 [compound (II), 12R, 13S-Dihydroxy-10-Octadecen-9S-olide]",viability at 1 µg/mL,"[1]; MDA-MB, 1 ug/mL, read-out: average cell viability",101%
same,viability at 10 µg/mL,"[1]; MDA-MB, 10 ug/mL, read-out: average cell viability",96%
same,viability at 50 µg/mL,"[1]; MDA-MB, 50 ug/mL, read-out: average cell viability",66%
same,viability at 100 µg/mL,"[1]; MDA-MB, 100 ug/mL, read-out: average cell viability",20%
same,IC50,[1]; 72 h,34.3 µg/mL
same,antiproliferative activity in tumour cell lines,tumour cell lines,significantly reduced tumour cell viability and growth in vitro
same,Tumour weight at necropsy,[2]; 1 mg,0.0815 g
same,Tumour size expressed in volume,"[2]; 1 mg/kg, Week 0",40.59 mm^3
same,Tumour size expressed in volume,"[2]; 1 mg/kg, Week 1",36.34 mm^3
same,Tumour size expressed in volume,"[2]; 1 mg/kg, Week 2",65.15 mm^3
same,Tumour size expressed in volume,"[2]; 1 mg/kg, Week 3",82.66 mm^3
same,Tumour size expressed in volume,"[2]; 1 mg/kg, Week 4",110.23 mm^3
same,Tumour weight at necropsy,[2]; 5 mg,0.0380 g
same,tumour growth,[2]; 5 mg/kg,inhibited tumour growth
same,Tumour volumes reduced by,"[2]; 5 mg/kg, intraperitoneal every second day, 4 weeks",50%
same,Tumour size expressed in volume,"[2]; 5 mg/kg, Week 0",44.24 mm^3
same,Tumour size expressed in volume,"[2]; 5 mg/kg, Week 1",30.47 mm^3
same,Tumour size expressed in volume,"[2]; 5 mg/kg, Week 2",39.17 mm^3
same,Tumour size expressed in volume,"[2]; 5 mg/kg, Week 3",43.73 mm^3
same,Tumour size expressed in volume,"[2]; 5 mg/kg, Week 4",66.83 mm^3
same,Tumour weight at necropsy,[2]; 10 mg,0.0913 g
same,Tumour size expressed in volume,"[2]; 10 mg/kg, Week 0",46.33 mm^3
same,Tumour size expressed in volume,"[2]; 10 mg/kg, Week 1",52.86 mm^3
same,Tumour size expressed in volume,"[2]; 10 mg/kg, Week 2",71.23 mm^3
same,Tumour size expressed in volume,"[2]; 10 mg/kg, Week 3",73.39 mm^3
same,Tumour size expressed in volume,"[2]; 10 mg/kg, Week 4",154.29 mm^3
same,reduction in tumour growth,"[2]; 1 and 10 mg/kg, early exponential tumour growth in these groups",No reduction in tumour growth
same,Body weight change Δ over the four-week trial,[3]; 1 mg/kg,0.6 g
same,Body weight,"[3]; 1 mg/kg, Week 1",21.9 g
same,Body weight,"[3]; 1 mg/kg, Week 2",22.5 g
same,Body weight,"[3]; 1 mg/kg, Week 3",22.1 g
same,Body weight,"[3]; 1 mg/kg, Week 4",22.5 g
same,Body weight change Δ over the four-week trial,[3]; 5 mg/kg,0.9 g
same,Body weight,"[3]; 5 mg/kg, Week 1",23.8 g
same,Body weight,"[3]; 5 mg/kg, Week 2",24.8 g
same,Body weight,"[3]; 5 mg/kg, Week 3",24.3 g
same,Body weight,"[3]; 5 mg/kg, Week 4",24.9 g
same,Body weight change Δ over the four-week trial,[3]; 10 mg/kg,0.8 g
same,Body weight,"[3]; 10 mg/kg, Week 1",24.2 g
same,Body weight,"[3]; 10 mg/kg, Week 2",24.8 g
same,Body weight,"[3]; 10 mg/kg, Week 3",24.3 g
same,Body weight,"[3]; 10 mg/kg, Week 4",25.0 g
